Measured values: patent US6077509A, “Peptide fragments of myelin basic protein” (Autoimmune, Inc., priority 1995, dated 2000)

B1: myelin basic protein (protein, UniProt P25188 1-167, looked up)
Myelin basic protein: ASQKRPSQRHGSKYLATASTMDHARHGFLPRHRDTGILDSIGRFFGSDRAAPKRGSGKDSHHAARTTHYGSLPQKSQRSQDENPVVHFFKNIVTPRTPPPSQGKGRGLSLSRFSWGAEGQKPGFGYGGRADYKSKGFKGAHDAQGTLSKIFKLGGRDSRSGSPMARR
B2: proteolipid protein (protein, UniProt P60201 2-277, looked up)
Myelin proteolipid protein: GLLECCARCLVGAPFASLVATGLCFFGVALFCGCGHEALTGTEKLIETYFSKNYQDYEYLINVIHAFQYVIYGTASFFFLYGALLLAEGFYTTGAVRQIFGDYKTTICGKGLSATVTGGQKGRGSRGQHQAHSLERVCHCLGKWLGHPDKFVGITYALTVVWLLVFACSAVPVYIYFNTWTTCQSIAFPSKTSASIGSLCADARMYGVLPWNAFPGKVCGSNLLSICKTAEFQMTFHLFIAAFVGAAATLVSLLTFMIAATYNFAVLKLMGRGTKF

What was measured:
actively induced EAE = test: Actively induced EAE (MBP/CFA immunization), clinical score; assay type: in vivo, Lewis rats; details: for suppression of EAE via IV tolerization: intravenously prior to immunization for actively induced disease (FIG. 7)
[1] = tested on: short term T-cell lines from peripheral blood mononuclear cells; test: Proliferation assay of short term T-cell lines for reactivity to MBP, PLP and overlapping MBP peptides; assay type: cell-based, human; details: for mean frequency of T-cell lines selectively reactive to the peptide, MS vs controls (FIG. 1): MS patients compared with combined controls
Protocol: A rapid T-cell cloning technique was used to examine whether there were immunodominant epitopes on human MBP reactive with Class II MHC phenotypes and the frequency of such reactivity. A total of 15,824 short term T-cell lines were generated from 51 human subjects by culturing peripheral blood mononuclear cells ([…]) with purified MBP (100 μg) followed 3 days later, and then every 3-4 days, by the addition of interleukin-2 (IL-2; from ABI, Columbia, Md.) and 2 units recombinant interleukin-4 (IL-4; Genzyme, Boston, Mass.). On Day 13 of culture, an aliquot from each line was tested for reactivity to MBP using the following proliferation assay: T-cell clones (1×10^5 cells/well) were plated in triplicate and cocultured with appropriate stimuli (i.e. 100 μg whole MBP or 5% IL-2) for 72 hours at 37° C., 90% humidity, 5% CO2, in 96 well flat bottomed microtiter plates (Costar). The cells were pulsed with 2 μCi [^3 H]TdR (2 Ci/mmole, New England Nuclear, Boston, Mass.) for the last 18 hours of culture. APCs were prepared by pulsing human Epstein-Barrvirus transformed human B-cells (the virus being commercially available from ATCC) or L-cells which are mouse cells transfected with human DR2 (L-cells are commercially available from ATCC under accession No. ATCC-CCL1 and can be transfected according to the method of Wilkinson, D. et al, J. Exp. Med., 1988, 167:1442-1458 using-DNA encoding DR2 as per Wu, S. et al J. Immunol., 1987, 138:2953). B-cells or L-cells were used at 1×10^6 cells/well in complete media either in the presence or absence of 40 pM MBP or phospholipid protein (PLP) for 2 hours at 37° C., washing twice with 4° C. […]
Subjects with other central nervous system diseases had the following diagnoses: 1-3 weeks after either cerebrovascular accident (n=4), brain trauma with CNS hemorrhage (n=4), or metastatic brain tumor (n=2). […] In addition, the frequency of MBP and PLP-reactive lines was calculated separately for each subject by dividing the number of MBP-reactive lines by the total number of lines generated and the mean values +/- SEM are given. […]

| Molecule | suppression of EAE via IV tolerization (actively induced EAE) | mean frequency of T-cell lines selectively reactive to the peptide, MS vs controls (FIG. 1) [1] | further results |
| --- | --- | --- | --- |
| 131-150: Control guinea pig MBP peptide 131-150 (DYKSKGFKGAHDAQGTLSKI; UniProt P25188 131-150, looked up, fragment) | did not suppress |  | suppression of EAE via oral tolerization (actively induced EAE; orally prior to immunization for actively induced disease (FIG. 7)): did not suppress |
| FKGVDAQGTLSKIFKLGGRD [143-168, human MBP amino acid residues 143-168] |  | both MS and control subjects showed high frequencies |  |
| HHPARTAHYGSLPQKSEGRT [61-82] |  | Significant but less striking increases in reactivity |  |
| histone |  |  | mean maximal score (actively induced EAE; IV injection before immunization with MBP/CFA, clinical scale 0-5): 3.0±0.3 |
| B1 | suppression of EAE |  |  |
| B2 |  |  | MEAN FREQUENCY OF Ag REACTIVE LINES ([1]; other neurological disease (n = 10), mean +/- SEM): 0.90 ± 0.62 |
